Values quoted from earlier work as cited in patent US20240274231A1, “Method, System and Computer Program Product for Determining Peptide Immunogenicity” (MyNeo NV, priority 2020, published 2024).
Read-outs that look alike come from different tables or passages of the source.

Test system: CD8+ T cell responses
Conditions: stimulated IFN gamma ELISpot, peptide specific CD8+ T-cell responses among eleven evaluable breast cancer patients, vaccine plus poly-ICLC

In the case of “SLFRAVITK [MAGGE-A196-104, HLA-A3 MAGE-A196-104 vaccine peptide]”, the ELISpot is listed as 1 borderline and the ELISpot (listed as MAGE-A196-104) is listed as “borderline response”.
